Data reported in US20210147802A1, “METHODS OF GENERATING ENUCLEATED ERYTHROID CELLS USING TAURINE OR HYPOTAURINE” (Rubius Therapeutics, Inc., priority 2019, published 2021).

Tests used:
[1] = tested on: erythroid progenitor cells; assay: Enucleated erythroid cell density over time in cultures of erythroid progenitor cells (FIG. 2); type: cell-based; conditions: culture medium including the substance during maturation; compared to methods without it
[2] = tested on: erythroid progenitor cells; assay: Total cell density over time in cultures of erythroid progenitor cells (FIG. 1); type: cell-based; conditions: culture medium including the substance during maturation; compared to methods without it
[3] = tested on: erythroid cells generated from human CD34+ hematopoietic stem cells; assay: Three-stage erythroid culture; maturation-phase (third) medium supplemented; FACS-based cell counting
Method: The effect of hypotaurine alone or in combination with myo-inositol on erythroid progenitor cell cultures was examined. Human CD34^+ hematopoietic stem cells (HSCs) were cultured in a three-stage process to generate enucleated erythroid cells. In the first stage, the CD34^+ HSCs were expanded in a T-flask in a first culture medium containing IMDM supplemented recombinant human insulin, recombinant human transferrin, recombinant human SCF, recombinant IL-3, recombinant Flt-3 ligand, and recombinant human IL-3. Subsequently, cells were transduced with a lentiviral vector encoding phenylalanine ammonia lyase. After transduction, cells were cultured in a 50 L bioreactor culture vessel containing a second culture medium containing IMDM, supplemented with recombinant human erythropoietin, recombinant human SCF, recombinant human IL3, recombinant human insulin, dexamethasone, and recombinant human transferrin. For the third stage of the process (maturation phase), an aliquot of cells was seeded into 24 well plate containing a third culture medium containing IMDM supplemented with recombinant human EPO, recombinant human SCF, recombinant human insulin, recombinant transferrin, human AB serum, and human plasma.
[…] Of note, the first, second and third culture media included a basal media (i.e., IMDM) including 0.0072 g/L of myo-inositol. Periodic sampling and cell counting was performed during the third stage using a fluorescence-activated cell sorting-based cell counter.

[4] = third culture media supplemented with taurine, compared to control culture conditions (data not shown)

Compound | number of enucleated erythroid cells [1] | rate of enucleation [1] | cell proliferation [2] | total cell density of erythroid cells ([3]; 1.0 g/L hypotaurine in third culture medium, 24 well plate, compared to control culture conditions (FIG. 1)) | enucleated erythroid cell density ([3]; 1.0 g/L hypotaurine in third culture medium, 24 well plate, compared to control culture conditions (FIG. 2)) | enucleated erythroid cell density [3, 4] | total cell density of erythroid cells [3, 4]
NCCS(=O)O [hypotaurine] | increased | increased | increased | significantly increase | significantly increase |  | 
NCCS(=O)(=O)O [taurine] | increased | increased | increased |  |  | significant increase | significant increase
